Measured values published in patent publication US5198462A, “Heterocyclic amine, derivatives, their production and use” (Takeda Chemical Industries, Ltd., priority 1990, dated 1993).

Experiments:
[1] = molecular target: T1, Acyl-CoA:cholesterol transferase (ACAT) (Rattus norvegicus, UniProt Q7TQM4); assay: Acyl-CoA:cholesterol transferase (ACAT)-inhibiting action; assay type: biochemical, Sprague-Dawley rats; conditions: 10^-6 M; microsomal fraction of mucosal cells from rat small intestines; labeled cholesterol ester formed from [1-14C]oleyl-CoA; read-out: ACAT inhibiting rate (%) 10^-6 M
T1 construct: prepared from the microsomal fraction of mucosal cells from the small intestines of 6-week old Sprague-Dawley rats; from tissue; host or cells: microsomal fraction of small-intestinal mucosal cells, Sprague-Dawley rats
T1 sequence (Q7TQM4 1-524): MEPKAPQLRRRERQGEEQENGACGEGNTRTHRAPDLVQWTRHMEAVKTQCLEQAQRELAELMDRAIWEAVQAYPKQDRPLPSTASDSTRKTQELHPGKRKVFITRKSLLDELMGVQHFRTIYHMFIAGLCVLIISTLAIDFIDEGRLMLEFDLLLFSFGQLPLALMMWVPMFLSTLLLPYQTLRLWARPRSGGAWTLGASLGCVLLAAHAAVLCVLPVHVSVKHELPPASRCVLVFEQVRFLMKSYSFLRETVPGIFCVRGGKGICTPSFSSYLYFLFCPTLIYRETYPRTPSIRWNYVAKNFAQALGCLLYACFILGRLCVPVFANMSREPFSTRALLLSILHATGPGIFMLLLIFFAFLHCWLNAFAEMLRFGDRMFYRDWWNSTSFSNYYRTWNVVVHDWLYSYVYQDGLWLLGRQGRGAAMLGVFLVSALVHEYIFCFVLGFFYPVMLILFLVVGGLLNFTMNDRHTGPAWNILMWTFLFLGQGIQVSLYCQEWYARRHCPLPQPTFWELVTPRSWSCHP
Experimental: The enzyme specimen ACAT was prepared from the microsomal fraction of mucosal cells from the small intestines of 6-week old Sprague-Dawley rats fasted for 20 hours, in accordance with the method described by Heider, et al. on Journal of Lipid Research, Vol. 24, p. 1127 (1982).
The activity of ACAT was calculated by determining the amount of labeled cholesterol ester formed from [1-^14 C]oleyl-CoA and endogenous cholesterol.
In Table 1, the inhibition rate (%) of formation of labeled cholesterol ester by the addition of test compounds (representing the compounds obtained by the following Working Examples 1 to 31) in an amount of 10^-6 M is shown as the index of the action of inhibiting ACAT.

[2] = Plasma cholesterol lowering activity in cholesterol fed rat; assay type: in vivo, Sprague-Dawley rats; conditions: 4 days, 1% cholesterol diet, n=5, mean ± standard deviation, *p < 0.05 vs. control (control 191.0 ± 25.6)
Experimental: 7-week old, male Sprague-Dawley rats were fed a 1% cholesterol diet (containing 0.5% cholic acid and 5% olive oil) for three days, and then the rats were grouped according to the plasma cholesterol level (n=5). They were fed with the diet as described above containing test compound for further 4 days. Blood was collected from the rats during 8:30-10:00 am at the fed state, and the plasma cholesterol level was measured enzymatically. The amount of test compound consumed by rats was calculated on the basis of the amount of the diet consumed by the rats.

Row | inhibition at 1 µM [1] [%] | Compound | Cholesterol in Serum ([2]; dose 0.13 mg/kg/day in diet) [mg/dL] | Cholesterol in Serum ([2]; dose 0.14 mg/kg/day in diet) [mg/dL]
1 | 98 | O=C(Nc1ccc(F)cc1F)Nc1oc(=O)c2ccc(Cl)cc2c1-c1ccccc1 [Example 1, N-(6-Chloro-4-phenylisocoumarin-3-yl)-N'-(2,4-difluorophenyl)urea] |  | 
2 | 89.8 | O=C(Nc1ccc(F)cc1F)Nc1oc(=O)c2cc(Cl)ccc2c1-c1ccccc1 [Example 9, N-(7-Chloro-4-phenylisocoumarin-3-yl)-N'-(2,4-difluorophenyl)urea] |  | 
3 | 92 | COc1ccccc1C1=C(NC(=O)Nc2ccc(N(C)C)cc2)SCc2ccccc21 [Example 28, N-(4-Dimethylaminophenyl)-N'-[4-(2-methoxyphenyl)-1H-2-benzothiopyran-3-yl]urea] |  | 
4 | 60.2 | O=C(Nc1ccc(F)cc1F)Nc1oc(=O)c2ccc(F)cc2c1-c1ccc(F)cc1 [Example 16, N-[6-Fluoro-4-(4-fluorophenyl)isocoumarin-3-yl]-N'-(2,4-difluorophenyl)urea] |  | 
5 | 88.7 | CCOC(=O)CNC(=O)Nc1oc(=O)c2ccccc2c1-c1ccccc1OC [Example 20, N-[4-(2-Methoxyphenyl)isocoumarin-3-yl]-N'-ethoxycarbonyl-methylurea] |  | 
6 | 95.5 | Cc1cc(NC(=O)NC2=C(c3ccccc3)c3ccccc3CS2)cc(C)c1O [Example 29, N-(4-Hydroxy-3,5-dimethylphenyl)-N'-(4-phenyl-1H-2-benzothiopyran-3-yl)urea] |  | 
7 | 98.5 | Cc1ccc2c(=O)oc(NC(=O)Nc3ccc(F)cc3F)c(-c3ccc(F)cc3)c2c1 [Example 10, N-[4-(4-Fluorophenyl)-6-methylisocoumarin-3-yl]-N'-(2,4-difluorophenyl)urea] |  | 
8 | 92.1 | O=C(Nc1ccc(F)cc1F)Nc1oc(=O)c2ccccc2c1-c1ccc(F)cc1 [Example 11, N-[4-(4-Fluorophenyl)isocoumarin-3-yl]-N'-(2,4-difluorophenyl)urea] |  | 
9 | 54.3 | Cn1c(NC(=O)Nc2ccc(F)cc2F)c(-c2cc(C(C)(C)C)c(O)c(C(C)(C)C)c2)c2ccccc2c1=O [Example 23, N-[4-(3,5-Di-t-butyl-4-hydroxyphenyl)-1,2-dihydro-2-methyl-1-oxoisoquinolin-3-yl-]-N'-(2,4-difluorophenyl)urea] |  | 
10 | 94.2 | O=C(Nc1ccc(F)cc1F)Nc1oc(=O)c2ccccc2c1-c1ccccc1 [Example 12, N-(4-Phenylisocoumarin-3-yl)-N'-(2,4-difluorophenyl)urea] |  | 
11 | 97.7 | COc1ccccc1-c1c(NC(=O)NC2CCCCC2)oc(=O)c2ccccc12 [Example 19, N-[4-(2-Methoxyphenyl)isocoumarin-3-yl]-N'-cyclohexylurea] |  | 

Further lines, the compound ahead of its results:

Row | Compound | inhibition at 1 µM [1] [%] | Cholesterol in Serum ([2]; dose 0.13 mg/kg/day in diet) [mg/dL] | Cholesterol in Serum ([2]; dose 0.14 mg/kg/day in diet) [mg/dL]
12 | CC(=O)Oc1c(C)cc(NC(=O)Nc2oc(=O)c3ccccc3c2-c2ccccc2)cc1C [Example 18, N-(4-Isocoumarin-3-yl)-N'-(4-acetoxy-3,5-dimethylphenyl)urea] | 83.2 |  | 
13 | Cc1cc2c(-c3ccccc3C)c(NC(=O)Nc3ccc(F)cc3F)n(C)c(=O)c2cc1C [Example 8, N-[1,2-Dihydro-4-(2-methylphenyl)-2,6,7-trimethyl-1-oxoisoquinolin-3-yl]-N'-(2,4-difluorophenyl)urea] | 64.9 |  | 
14 | CC(=O)Oc1c(C)cc(NC(=O)Nc2oc(=O)c3ccc(Cl)cc3c2-c2ccccc2)cc1C [Example 13, N-(6-Chloro-4-phenylisocoumarin-3-yl)-N'-(4-acetoxy-3,5-dimethylphenyl)urea] | 95.8 |  | 
15 | CC(C)(C)OC(=O)Nc1oc(=O)c2ccc(Cl)cc2c1-c1ccccc1 [Example 2, t-Butyl N-(6-chloro-4-phenylisocoumarin-3-yl) carbamate] | 76.1 |  | 
16 | CC(=O)Oc1c(C)cc(NC(=O)NC2=C(c3ccccc3)c3ccccc3CS2)cc1C [Example 26, N-(4-acetoxy-3,5-dimethylphenyl)-N'-(4-phenyl-1H-2-benzothiopyran-3-yl)urea] | 94.8 |  | 
17 | COc1ccccc1-c1c(NC(=O)Nc2ccc(F)cc2F)oc(=O)c2ccccc12 [Example 15, N-[4-(2-Methoxyphenyl)isocoumarin-3-yl]-N'-(2,4difluorophenyl)urea] | 99.4 | 125.2 ± 22.6 | 
18 | CC(=O)Oc1c(C)cc(NC(=O)Nc2oc(=O)c3ccc(F)cc3c2-c2ccc(F)cc2)cc1C [Example 17, N-[6-Fluoro-4-(4-fluorophenyl)isocoumarin-3-yl]-N'-(4-acetoxy-3,5-dimethylphenyl)urea] | 65.7 |  | 
19 | COc1ccccc1C1=C(NC(=O)Nc2cc(C)c(OC(C)=O)c(C)c2)SCc2ccccc21 [Example 27, N-(4-Acetoxy-3,5-dimethylphenyl)-N'-[4-(2-methoxyphenyl)-1H-2-benzothiopyran-3-yl]urea] | 99.3 |  | 
20 | COc1ccccc1-c1c(NC(=O)Nc2cc(C)c(OC(C)=O)c(C)c2)oc(=O)c2ccccc12 [Example 14, N-[4-(2-Methoxyphenyl)isocoumarin-3-yl]-N'-(4-acetoxy-3,5-dimethylphenyl)urea] | 99 |  | 103.4 ± 23.7
